PMC12047801, “Disrupting the OTUD4-USP7 deubiquitinase complex to suppress herpesvirus replication: a novel antiviral strategy” (PLOS Pathogens, 2025)

Test system: KSHV genome replication in BCBL-1 cells
Assay: Relative viral genomic copy number (latency) by qPCR in BCBL-1 cells
Format: cell-based
Conditions: Fig. S1F, 100 μM, 48 h

Question: Ac-YGRKKRRQRRRGGVNQSASQSSN-NH2 [p8] was tested. Which “Relative viral genomic copy number” value (replicate 1) did it give?
Answer: Its value is 1.16.

Question: And the “Relative viral genomic copy number” value (replicate 2)?
Answer: Its value is 1.11.

Question: And the “Relative viral genomic copy number” value (replicate 3)?
Answer: The value was 0.96.
